One compound from ChEMBL document CHEMBL5055690, “Introducing the Tellurophene-Appended BODIPY: PDT Agent with Mass Cytometry Tracking Capabilities” (ACS Med Chem Lett, 2021) can be followed below.

The subject of series [1] is HeLa. The series can be described thus: Induction of ROS generation in human HeLa cells at 25 nM measured after 3 hrs by DCFDA staining based flourescence assay. The format is cell-based. The conditions noted are these: 0.025 µM.
Series [2] relates to HeLa. As to the kind of experiment: Induction of apoptosis in human HeLa cells at 1.25 nM preincubated for 3 hrs followed by irradiation with 23.6 milliwolt/cm2 of 525 nanometer laser light for 5 mins and measured after 4 hrs by Annexin V/PI staining based flowcytometry assay. The note with it: time 185.0 min. The format is functional, cell-based.
Series [3] in a line: Drug uptake in human HeLa cells assessed as drug accumulation at 25 to 1000 nM incubated for 3 hrs under dark condition by […] mass cytometry. The series is classed as ADME, cell-based. The note with it: 1 µM, dose 25-1000 nM.
The subject of series [4] is HeLa. As to the kind of experiment: Dark toxicity in human HeLa cells assessed as reduction in cell viability measured after 3 hrs by MTT assay. The format is cell-based.
Series [5] relates to HeLa. As to the kind of experiment: Induction of ROS generation in human HeLa cells at 25 nM preincubated for 3 hrs followed by irradiation with 23.6 milliwolt/cm2 of 525 nanometer laser light for 5 mins and measured by DCFDA staining based flourescence method. The format is functional, cell-based. The note with it: time 185.0 min.
Series [6] in a line: Induction of singlet oxygen generation in DMF solution assessed as singlet oxygen quantum yield irradiated with 490 nanometer LED light by DPBF-based assay. The series is classed as functional.
The test system of series [7] is HeLa. As to the kind of experiment: Induction of apoptosis in human HeLa spheroids assessed as cell death at 100 nM preincubated for 3 hrs followed by irradiation with 23.6 milliwolt/cm2 of 525 nanometer laser light for 5 mins and measured after overnight by plate reader assay. The format is functional, cell-based. The note with it: time 185.0 min.

Activity calls are given as the source filed them. The rule behind the calls is not given here.

What is called IC50 is the concentration at which inhibition is half-maximal. Take `F[B-]1(F)n2cccc2C(c2ccc(-c3ccc[te]3)cc2)=C2C=CC=[N+]21`: the Activity result was “Non-Toxic” in series [1] and 0.26 in series [6]. The result in series [2], in series [5] and in series [7] was Active. The Drug uptake result in series [3] was “Active”. Besides, in series [4], the half-inhibitory concentration (IC50) was 1350 nM.
